# Laboratory results as given in US20040097534A1, “Composition for the protection and regeneration of nerve cells containing berberine derivatives” (EUGENBIO INC., priority 2001, published 2004).
# Like-named read-outs stand apart in the source and are kept apart here.
# How the values were obtained:
# HiB5 cells = details: for O.D. %: control = 100
# Protocol: Since HiB5 cells derived from white rat embryonic hippocampus were prepared by retroviral infection of temperature sensitive SV40 large T antigen, they divided at […], but the cell division stopped at 39° C. (body temperature of rat). […] Cell culture medium was prepared by adding a mixture of 10% FBS (fetal bovine serum), penicillin/streptomycin, glutamine and sodium pyruvate (0.11 g/L) to DMEM. On differentiating at 39° C., another cell culture medium was prepared by adding pyruvate to a serum-free medium (N2, containing DMEM/F12, insulin, transferrin, Putreseine and BSA; Botten Stein & Sato., 1979). PC12 cells and SH-SY5Y cells were cultured in DMEM supplemented with 10% FBS. In order to differentiate the cells, NGF or retinoic acid was added to a serum-free medium.
# Cell injuries under condition of serum deprivation-induced stress and oxidative stress were measured by MTT assay. For MTT assay, Cells were seeded into N2 medium in an amount of 7.5×10^3 cells, and then a neurotoxin or a nerve growth factor was added thereto to differentiate the cells and then 0.1 volume of 4 mg/ml MTT was further added. The mixture was stored at 37° C. for 3-4 hours. After 100 μl of solubilization buffer was added to the mixture and then stored for 24 hours, O.D. values were measured by ELISA assay.
# HiB5 cell line used in this experiment was prepared by infecting primary cultured cells of temperature sensitive SV40 large T antigen in rat embryonic hippocampus (embryonic day 16) using retroviral vectors. The HiB5 cell line was divided at the permissive temperature (32° C.), but the cell division stopped at the non-permissive temperature (body temperature of rat: 39° C.). A small number of GABAegic neurons differentiated in the rat embryonic hippocampus (embryonic day 16), and glutamatergic pyramidal cell precursors still divided, some of which penetrated into dentate gyrus regions through dentate migration pathways in embryonic day 18 to differentiate into glutamatergic granule cells (Altman J., Bayer. S. A. (1990a) Prolonged sojourn of developing pyramidal cells in the intermediate zone of the hippocampus and their settling in the stratum pyramidale. J Comp Neurol. 301, 343-64.; Altman J., Das G. D. (1965) Post-natal origin of microneurones in the rat brain, Nature. 28, 953-956.). When cells stop their cell-division and start to differentiate in vivo, apoptosis occurs.
# In order to evaluate the protective effect of berberine against apoptosis and the effect of increasing cell survival, HiB5 cells were cultured under conditions for initiation of differentiation. At this time, the culture was treated with berberine at various concentrations (50 ng/ml˜6 μg/ml). The protective effect of berberine against apoptosis was measured by MTT assay. A positive control group was treated with bFGF to block apoptosis, increase cell survival and induce the differentiation into nerve cells.
# Since HiB5 neuronal stem cells undergo cell death during the differentiation, the cells were considered as a negative control group. The percentage of O.D. values is determined for the groups treated with bFGF and berberine, respectively.
# [1] = test system: pyramidal nerve cells in the hippocampal CA1 region; experiment: Forebrain ischemia induced by 4-vessel occlusion (4-VO), viable CA1 cells; type: in vivo, Wister male white rats; details: berberine i.p. 0 and 90 minutes after ischemia induction, 1 week after; sham 308±6.6, saline 28±3.8
# Protocol: A 4-VO model was prepared by a modified method of Pulsinelli, et al (Ann. Neurol. 11, 491-498(1982)). Wister male white rats weighing about […] were anesthetized with 5% isoflurane contained in a mixture of nitrogen and oxygen (70:30), and then surgery was performed under anesthetization while maintaining the concentration of isoflurane at 1.5%.
# First, the throat region was incised, and then silicone tube rings were inserted into common carotid arteries to perform reperfusion after ischemia induction. Upon inducing ischemia, in order to block blood circulation through microvessels, a thread was penetrated so that the trachea, esophagus, external jugular veins and common carotid arteries of the rat were positioned to the front, and cervical and paravertebral muscles of the rat were positioned to the back. Thereafter, the wounds were sutured with operating clips.
# Next, the head of the rat was fixed on a stereotaxic apparatus to operate on the occiput, and then the tail was fixed so that it descended downwardly at an angle of 30°. […]
# While body temperatures of the rats were measured at intervals of 30 minutes for 2 hours, and thereafter measured at intervals of 1 hour for 3 hours after ischemia induction, the rats were maintained at 37±0.5° C. using a temperature-controlling heater. The body temperature was measured by inserting a probe into the rectum to a depth of 6 cm. […]
compound,measurement,setting,value
"COc1ccc2cc3[n+](cc2c1OC)CCc1cc2c(cc1-3)OCO2 [Berberine, 7,8,13,13a-tetradihydro-9,10-dimethoxy-2,3-(methylenedioxy) berbinium]",O.D. %,HiB5 cells; 50 ng,99%
same,O.D. %,HiB5 cells; 100 ng,103%
same,O.D. %,HiB5 cells; 250 ng,111%
same,O.D. %,HiB5 cells; 500 ng,140%
same,O.D. %,HiB5 cells; 700 ng,154%
same,O.D. %,HiB5 cells; 1 μg,153%
same,O.D. %,HiB5 cells; 1.5 μg,162%
same,O.D. %,HiB5 cells; 2 μg,173%
same,O.D. %,HiB5 cells; 2.5 μg,185%
same,O.D. %,HiB5 cells; 3 μg,190%
same,O.D. %,HiB5 cells; 4 μg,189%
same,O.D. %,HiB5 cells; 5 μg,191%
same,O.D. %,HiB5 cells; 6 μg,190%
same,"cell survival rate / protective effect against apoptosis, increase over control","HiB5 cells; HiB5 under differentiation conditions, MTT",about two times
same,cell survival rate,HiB5 cells; berberine 250˜500 ng/ml,somewhat increased
same,cytotoxicity,HiB5 cells; berberine up to 6 μg/ml,no cytotoxicity
same,density of viable cells in hippocampal CA1,[1],257±9.6 cell/mm^2
